In assay [1] the target is Luciferin 4-monooxygenase (Photinus pyralis, UniProt P08659). The experiment in a line: Counter Screen for Luciferase-based Assay Positives. [Related pubchem assays: 620, 618, 411 ].
Assay [2] relates to HT-1080. The experiment in a line: cytotoxicity in HT1080 fibrosarcoma cells, cell-based, fluorescence readout (AID 620). Type of assay: functional. As to conditions: Homo sapiens.
For assay [3], the target named is Dual specificity tyrosine-phosphorylation-regulated kinase 1A (Rattus norvegicus, UniProt Q63470). Type of assay: biochemical, Homo sapiens.
The nature of assay [4]: HepG2 cell cytotoxicity, dose response, cytotoxicity control, ATP luminescence, cherry-pick, activator set 2 (AID 1053143). The class given is functional, cell-based.
In assay [5] the test system is Escherichia coli. The experiment in a line: microbe, parasite or virus in culture.
Assay [6] concerns the target T1, Coagulation factor XII (Homo sapiens, UniProt P00748).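 Note: activated factor XIIa alpha cleaving a fluorogenic AMC peptide substrate; inhibitor potency from loss of enzyme activity.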
T1 sequence (P00748 whole entry): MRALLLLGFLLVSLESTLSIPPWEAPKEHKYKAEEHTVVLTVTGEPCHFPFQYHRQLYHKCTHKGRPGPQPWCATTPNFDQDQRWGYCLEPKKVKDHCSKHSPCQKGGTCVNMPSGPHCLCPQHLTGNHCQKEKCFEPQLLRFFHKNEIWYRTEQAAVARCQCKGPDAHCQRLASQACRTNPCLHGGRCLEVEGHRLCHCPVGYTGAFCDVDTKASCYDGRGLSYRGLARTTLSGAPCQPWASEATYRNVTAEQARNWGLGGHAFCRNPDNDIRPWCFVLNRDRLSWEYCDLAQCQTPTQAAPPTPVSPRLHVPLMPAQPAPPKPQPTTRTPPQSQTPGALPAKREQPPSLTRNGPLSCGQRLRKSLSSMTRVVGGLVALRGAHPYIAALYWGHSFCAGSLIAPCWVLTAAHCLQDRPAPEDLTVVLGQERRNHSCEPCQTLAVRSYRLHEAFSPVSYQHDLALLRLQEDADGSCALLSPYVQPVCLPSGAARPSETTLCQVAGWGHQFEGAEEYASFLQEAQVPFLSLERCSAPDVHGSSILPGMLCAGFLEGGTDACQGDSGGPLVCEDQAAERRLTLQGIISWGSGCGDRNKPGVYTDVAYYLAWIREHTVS
The class given is functional.

For assay [7], the target named is 1-phosphatidylinositol 4,5-bisphosphate phosphodiesterase gamma-1 (Homo sapiens, UniProt P19174). The experiment in a line: Counterscreen for inhibitors of phospholipase C isozymes (PLC-B3): Fluorescence-based biochemical high throughput dose response assay to identify inhibitors of phospholipase C isozymes (PLC-gamma1). In general terms: Counterscreens check selectivity or assay interference.

Assay [8] addresses 1-phosphatidylinositol 4,5-bisphosphate phosphodiesterase beta-3 (Homo sapiens, UniProt Q01970). The experiment in a line: Fluorescence-based biochemical high throughput dose response assay to identify inhibitors of phospholipase C isozymes (PLC-B3).
A short description of assay [9]: HepG2 cell cytotoxicity, dose response, cytotoxicity control, ATP luminescence, cherry-pick, set 6 (AID 1053125). Type of assay: functional, cell-based.
The target of assay [10] is Oxysterols receptor LXR-beta (Homo sapiens, UniProt P55055). The class given is functional, cell-based.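 Note: Cell-based luminescence dose-response assay of agonist activity at LXR, run as a confirmatory counterscreen to a daf-12 agonist screen; HEK293 cells with Gal4-LXR fusion and GAL4-driven luciferase reporter; agonist potency from rising luciferase signal of a Gal4-LXR reporter.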
A short description of assay [11]: cells.
The target in assay [12] is NAD-dependent protein deacylase sirtuin-5, mitochondrial (Homo sapiens, UniProt Q9NXA8). The experiment in a line: SIRT5 deacylase inhibitors, dose response, biochemical, fluorescence imaging, cherry-pick, set 6 (AID 720597).
A short description of assay [13]: HEK293T cell cytotoxicity, dose response, cytotoxicity control, CellTiter-Glo luminescence, dry powder, set 6 (AID 651949). Type of assay: functional, cell-based. As to conditions: HEK293. A general note: In ATP-based viability assays light output follows the ATP content of the culture.
The subject of assay [14] is Streptococcus sp. 'group A'. The experiment in a line: growth inhibition of control SK(-) GAS strain, dose response, counter-screen for streptokinase expression inhibitor project, luminescence, kanamycin, BacTiterGlo, confirmation (AID 1900). Type of assay: functional, organism-based.
For assay [15], the system named is Streptococcus. The experiment in a line: Group A Streptococcus viability loss, dose response, counter-screen for streptokinase expression inhibitor project, luminescence, BacTiterGlo (AID 1915).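 Note: potency for reduction of bacterial viability or growth.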 The class given is functional, organism-based.
The target of assay [16] is T2, Short transient receptor potential channel 4 (Mus musculus, UniProt Q9QUQ5).
T2 sequence (Q9QUQ5 whole entry): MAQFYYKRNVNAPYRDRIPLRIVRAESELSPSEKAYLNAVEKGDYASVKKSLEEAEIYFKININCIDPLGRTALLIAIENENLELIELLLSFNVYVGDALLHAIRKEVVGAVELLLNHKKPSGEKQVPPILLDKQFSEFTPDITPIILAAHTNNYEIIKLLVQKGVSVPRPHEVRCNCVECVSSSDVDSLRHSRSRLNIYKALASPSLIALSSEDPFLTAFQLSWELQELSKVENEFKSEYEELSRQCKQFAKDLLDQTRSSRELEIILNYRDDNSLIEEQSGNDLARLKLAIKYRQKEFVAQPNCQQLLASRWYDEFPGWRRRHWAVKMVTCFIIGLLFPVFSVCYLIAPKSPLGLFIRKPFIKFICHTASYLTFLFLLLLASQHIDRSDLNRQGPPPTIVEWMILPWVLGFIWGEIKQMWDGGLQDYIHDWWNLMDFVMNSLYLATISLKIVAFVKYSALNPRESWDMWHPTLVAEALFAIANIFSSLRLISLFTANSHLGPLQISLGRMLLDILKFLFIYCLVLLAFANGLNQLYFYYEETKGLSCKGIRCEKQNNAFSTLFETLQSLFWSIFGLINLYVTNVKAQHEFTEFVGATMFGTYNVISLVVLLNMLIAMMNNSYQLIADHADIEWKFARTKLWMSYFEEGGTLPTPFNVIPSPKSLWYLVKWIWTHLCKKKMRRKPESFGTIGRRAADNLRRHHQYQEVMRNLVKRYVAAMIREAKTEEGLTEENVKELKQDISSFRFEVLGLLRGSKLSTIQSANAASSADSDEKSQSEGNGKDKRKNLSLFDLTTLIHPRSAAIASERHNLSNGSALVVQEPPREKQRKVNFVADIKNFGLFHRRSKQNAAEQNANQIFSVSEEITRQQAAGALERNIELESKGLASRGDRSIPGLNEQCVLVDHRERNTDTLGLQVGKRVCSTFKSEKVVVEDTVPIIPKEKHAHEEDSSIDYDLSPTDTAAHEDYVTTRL
The experiment in a line: mouse TRPC4 channel activators, dose response, cell-based, HEK293 TRPC4/mu-opioid, Fluo-4 calcium (AID 434937). The class given is functional.

Assay [17] is described as follows: human group III sPLA2 inhibitors, dose response, biochemical, QFRET, IC50 (AID 743457).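 Note: green fluorescence rise as the enzyme cleaves BODIPY PC-A2 in liposomes; potency for inhibition of the enzyme.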
A short description of assay [18]: inhibitors of non-replicating M. tuberculosis, dose response, luciferase, dry powder (AID 651619). Type of assay: functional. The following applies: Mycobacterium tuberculosis.
A short description of assay [19]: cytotoxicity in HepG2 cells, dose response, cytotoxicity control, cell-based, plate reader, dry powder (AID 651947). Type of assay: functional.
Assay [20] can be described thus: cytotoxicity in HeLa cells, dose response, cytotoxicity control, cell-based, plate reader, dry powder (AID 651946). The class given is functional.
Assay [21] can be described thus: inhibitors of non-replicating M. tuberculosis, dose response, luciferase, dry powder (AID 651620). The class given is functional. The following applies: Mycobacterium tuberculosis.
Assay [22] in a line: growth inhibition of replicating M. tuberculosis, dose response, counter-screen, dry powder, IC90 (AID 651617). Type of assay: functional. The following applies: Mycobacterium tuberculosis.

Active and inactive are the calls of the source. Some results are limits rather than exact numbers.

Sequence of Oxysterols receptor LXR-beta (P55055 whole entry, the tested form may be a part): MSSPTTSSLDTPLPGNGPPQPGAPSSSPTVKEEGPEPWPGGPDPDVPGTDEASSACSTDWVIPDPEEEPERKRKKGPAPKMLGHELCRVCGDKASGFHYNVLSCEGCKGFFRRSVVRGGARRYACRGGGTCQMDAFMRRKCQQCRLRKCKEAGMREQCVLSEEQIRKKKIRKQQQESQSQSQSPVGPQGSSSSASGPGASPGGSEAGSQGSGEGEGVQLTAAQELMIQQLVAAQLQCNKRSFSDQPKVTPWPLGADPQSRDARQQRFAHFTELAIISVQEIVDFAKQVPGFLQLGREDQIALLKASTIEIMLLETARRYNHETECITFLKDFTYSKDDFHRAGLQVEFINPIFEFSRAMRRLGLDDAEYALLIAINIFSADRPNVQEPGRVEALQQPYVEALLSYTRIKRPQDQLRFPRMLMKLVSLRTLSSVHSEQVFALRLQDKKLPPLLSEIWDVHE
Sequence of 1-phosphatidylinositol 4,5-bisphosphate phosphodiesterase beta-3 (Q01970 whole entry): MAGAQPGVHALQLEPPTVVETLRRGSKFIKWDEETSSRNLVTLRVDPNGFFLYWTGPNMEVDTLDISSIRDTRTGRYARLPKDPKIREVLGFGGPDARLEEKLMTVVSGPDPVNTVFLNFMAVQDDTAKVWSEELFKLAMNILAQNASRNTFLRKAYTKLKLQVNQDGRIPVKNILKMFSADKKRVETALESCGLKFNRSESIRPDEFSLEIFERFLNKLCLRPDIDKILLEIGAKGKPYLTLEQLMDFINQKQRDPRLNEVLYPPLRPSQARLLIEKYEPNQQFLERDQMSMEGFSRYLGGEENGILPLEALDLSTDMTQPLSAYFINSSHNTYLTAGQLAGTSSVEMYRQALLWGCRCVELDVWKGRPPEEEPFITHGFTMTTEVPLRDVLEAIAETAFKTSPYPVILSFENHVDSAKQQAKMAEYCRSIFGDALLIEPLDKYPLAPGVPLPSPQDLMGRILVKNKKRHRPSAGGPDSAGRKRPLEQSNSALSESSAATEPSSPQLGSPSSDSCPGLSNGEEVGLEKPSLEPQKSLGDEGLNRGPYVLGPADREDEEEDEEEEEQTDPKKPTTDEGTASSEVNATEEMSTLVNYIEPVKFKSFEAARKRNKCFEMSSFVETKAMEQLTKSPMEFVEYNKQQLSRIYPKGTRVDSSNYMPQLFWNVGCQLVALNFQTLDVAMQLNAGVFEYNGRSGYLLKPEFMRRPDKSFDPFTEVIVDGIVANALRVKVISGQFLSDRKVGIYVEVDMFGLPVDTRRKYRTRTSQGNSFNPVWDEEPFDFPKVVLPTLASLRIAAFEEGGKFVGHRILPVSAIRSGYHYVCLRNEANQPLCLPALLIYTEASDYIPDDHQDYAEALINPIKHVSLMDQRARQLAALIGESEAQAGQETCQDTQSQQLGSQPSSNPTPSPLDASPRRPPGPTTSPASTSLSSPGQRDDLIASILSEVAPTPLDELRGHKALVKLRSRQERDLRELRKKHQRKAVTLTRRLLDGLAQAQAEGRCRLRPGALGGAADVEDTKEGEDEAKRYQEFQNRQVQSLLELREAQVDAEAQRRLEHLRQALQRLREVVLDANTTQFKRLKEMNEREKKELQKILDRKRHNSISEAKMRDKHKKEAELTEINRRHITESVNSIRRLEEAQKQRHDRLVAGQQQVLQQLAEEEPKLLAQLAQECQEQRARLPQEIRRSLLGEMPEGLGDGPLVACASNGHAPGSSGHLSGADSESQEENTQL
Sequence of Luciferin 4-monooxygenase (P08659 whole entry): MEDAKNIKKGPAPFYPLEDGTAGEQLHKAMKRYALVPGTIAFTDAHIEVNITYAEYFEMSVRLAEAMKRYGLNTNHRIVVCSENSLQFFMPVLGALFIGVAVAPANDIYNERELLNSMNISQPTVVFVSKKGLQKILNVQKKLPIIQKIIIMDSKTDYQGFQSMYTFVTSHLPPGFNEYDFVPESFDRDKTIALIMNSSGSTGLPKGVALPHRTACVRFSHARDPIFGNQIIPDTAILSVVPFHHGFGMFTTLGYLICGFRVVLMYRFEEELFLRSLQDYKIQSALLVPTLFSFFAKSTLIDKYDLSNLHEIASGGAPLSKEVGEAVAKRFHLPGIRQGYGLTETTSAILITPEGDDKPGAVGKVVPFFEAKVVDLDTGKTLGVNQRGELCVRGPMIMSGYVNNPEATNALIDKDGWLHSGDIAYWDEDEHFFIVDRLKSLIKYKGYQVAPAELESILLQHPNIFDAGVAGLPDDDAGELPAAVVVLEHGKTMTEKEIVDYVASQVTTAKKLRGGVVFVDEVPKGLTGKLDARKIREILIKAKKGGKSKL
Sequence of NAD-dependent protein deacylase sirtuin-5, mitochondrial (Q9NXA8 whole entry): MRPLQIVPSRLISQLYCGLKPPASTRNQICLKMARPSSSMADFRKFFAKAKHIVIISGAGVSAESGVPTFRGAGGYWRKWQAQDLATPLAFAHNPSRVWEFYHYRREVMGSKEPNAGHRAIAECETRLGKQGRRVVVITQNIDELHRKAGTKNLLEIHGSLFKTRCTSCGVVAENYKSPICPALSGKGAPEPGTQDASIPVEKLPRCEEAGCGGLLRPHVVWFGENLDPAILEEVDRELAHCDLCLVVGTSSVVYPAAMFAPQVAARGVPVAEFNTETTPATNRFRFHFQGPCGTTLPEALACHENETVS
Sequence of 1-phosphatidylinositol 4,5-bisphosphate phosphodiesterase gamma-1 (P19174 whole entry): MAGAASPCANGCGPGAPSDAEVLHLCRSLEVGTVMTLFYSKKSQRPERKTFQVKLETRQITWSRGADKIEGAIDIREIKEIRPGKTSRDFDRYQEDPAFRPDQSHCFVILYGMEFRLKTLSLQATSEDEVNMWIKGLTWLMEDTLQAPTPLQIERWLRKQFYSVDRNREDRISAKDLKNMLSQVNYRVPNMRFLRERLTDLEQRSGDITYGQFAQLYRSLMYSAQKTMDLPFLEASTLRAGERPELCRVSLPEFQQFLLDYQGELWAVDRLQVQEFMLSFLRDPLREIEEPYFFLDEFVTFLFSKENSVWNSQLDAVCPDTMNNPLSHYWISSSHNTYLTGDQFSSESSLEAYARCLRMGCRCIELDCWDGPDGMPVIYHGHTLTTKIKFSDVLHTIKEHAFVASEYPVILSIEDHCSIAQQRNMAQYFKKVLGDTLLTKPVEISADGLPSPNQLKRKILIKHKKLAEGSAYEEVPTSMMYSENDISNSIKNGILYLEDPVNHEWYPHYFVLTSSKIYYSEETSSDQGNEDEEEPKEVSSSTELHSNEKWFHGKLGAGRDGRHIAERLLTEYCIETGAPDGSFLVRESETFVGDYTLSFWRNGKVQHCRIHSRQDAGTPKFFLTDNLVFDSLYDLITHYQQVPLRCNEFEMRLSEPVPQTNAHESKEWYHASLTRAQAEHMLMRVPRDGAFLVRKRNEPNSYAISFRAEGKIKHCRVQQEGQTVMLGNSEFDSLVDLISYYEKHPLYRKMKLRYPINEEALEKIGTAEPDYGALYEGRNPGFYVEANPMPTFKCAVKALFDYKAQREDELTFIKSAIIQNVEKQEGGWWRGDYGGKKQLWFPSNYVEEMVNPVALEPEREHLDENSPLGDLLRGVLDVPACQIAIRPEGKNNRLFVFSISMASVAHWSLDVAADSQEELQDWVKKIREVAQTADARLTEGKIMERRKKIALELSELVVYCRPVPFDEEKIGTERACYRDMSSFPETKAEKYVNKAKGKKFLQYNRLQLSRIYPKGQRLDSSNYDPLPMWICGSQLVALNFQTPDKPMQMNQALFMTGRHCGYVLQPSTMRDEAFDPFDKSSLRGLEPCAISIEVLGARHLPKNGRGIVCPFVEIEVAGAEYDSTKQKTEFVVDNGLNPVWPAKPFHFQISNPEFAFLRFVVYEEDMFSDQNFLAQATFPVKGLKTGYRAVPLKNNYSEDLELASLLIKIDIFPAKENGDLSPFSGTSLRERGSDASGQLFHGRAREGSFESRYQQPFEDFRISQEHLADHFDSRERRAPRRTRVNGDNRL

Broadly, the EC50 is the midpoint of the concentration-response curve. Broadly, the AC50 is the midpoint of the concentration-response curve, whichever way the signal moves. With `Nc1ccc(C(=O)Nc2nc3ccccc3s2)cc1`, the 50% effective concentration (EC50) in assay [1] was 0.32 µM (active); in assay [2], > 50 µM (not active). The AC50 is 4.15 µM (active) in assay [3], 26 µM (active) in assay [4] and 47.5 µM (active) in assay [5].

In general, IC50 refers to the concentration that gives 50% inhibition. `CS(=O)(=O)c1nc(-c2ccc(Br)cc2)n[nH]1`: the figures for the IC50 in [6], in [7] and in assay [8] were > 50 µM (inactive), 50.8 µM (inactive) and > 122 µM (inactive), respectively.

As for `CC(=O)/N=c1\c(C#N)cc2c(=O)n3ccccc3nc2n1CCCOC(C)C`, in assay [9], the AC50 is > 52 µM (inactive).

As to `COc1ccccc1C(=O)NC(=S)Nc1cccnc1Cl`, the EC50 in [10] and in assay [11] was > 67.5 µM (inactive) in each case.

On to `C[C@H](CO)N1C[C@H](C)[C@H](CN(C)C)Oc2ccc(NC(=O)Nc3ccc(F)cc3)cc2CC1=O`, for which, in assay [12], the concentration at half-maximal activity (AC50) is 11.5 µM (active).

Consider `CN(Cc1ccccc1)c1nnc(-c2ccccc2)o1`, for which the AC50 in assay [13] is > 52 µM (inactive).

Regarding `Cc1onc(-c2ccccc2)c1C(=O)NNC(=S)NC(=O)c1ccc2c(c1)OCO2`, the half-maximal effective concentration (EC50) in assay [14] was 0.978 µM (active); in [15], 4.64 µM (active); in assay [16], 4.22 µM (active). For the same compound, the IC50 in assay [17] was 56.6 µM (inactive).

A word on the IC90: it is the point of the concentration-response curve where the effect stands at 90%. `[O-][S+](Cc1cn(Cc2ccccc2)nn1)c1nnc(-c2ccc(Cl)cc2)o1` (configuration not stated): the IC90 in assay [18] is 2 µM (active); in assay [21], 2 µM (active); in [22], 125 µM (active). Besides, the figures for the AC50 in [19] and in [20] were 19.6 µM (active) and 24.2 µM (active), respectively.

Values taken from ChEMBL document CHEMBL1201862, “PubChem BioAssay data set” (2004).
